Laboratory results taken from BindingDB's records for doi:10.1016/j.ejmech.2018.04.062 (Lindsley F. Kimball Research Institute, 2018).

Columns and labels:
Cytochrome P450 2D6 = Cytochrome P450 2D6 (Homo sapiens, UniProt P10635); assay: Inhibition of human liver microsome CYP2D6 using bufuralol as substrate incubated for 20 mins by LC-MS/MS analysis
Cytochrome P450 1A2 = biological target: T1, Cytochrome P450 1A2 (Homo sapiens, UniProt P05177); assay: Inhibition of human liver microsome CYP1A2 using phenacetin as substrate incubated for 20 mins by LC-MS/MS analysis
T1 sequence (P05177 whole entry): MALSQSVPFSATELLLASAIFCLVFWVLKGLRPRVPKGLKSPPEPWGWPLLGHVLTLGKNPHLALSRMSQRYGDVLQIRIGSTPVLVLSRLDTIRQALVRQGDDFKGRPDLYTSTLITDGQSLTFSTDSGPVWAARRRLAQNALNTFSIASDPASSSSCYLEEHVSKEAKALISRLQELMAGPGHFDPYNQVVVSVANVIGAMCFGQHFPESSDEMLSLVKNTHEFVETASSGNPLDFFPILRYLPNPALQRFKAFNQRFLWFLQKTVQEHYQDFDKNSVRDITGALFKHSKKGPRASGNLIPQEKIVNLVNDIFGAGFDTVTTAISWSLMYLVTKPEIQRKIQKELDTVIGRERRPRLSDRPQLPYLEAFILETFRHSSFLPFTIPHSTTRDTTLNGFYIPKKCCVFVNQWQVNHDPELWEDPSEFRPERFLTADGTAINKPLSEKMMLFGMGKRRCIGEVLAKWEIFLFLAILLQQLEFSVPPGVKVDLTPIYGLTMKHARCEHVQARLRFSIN

Cytochrome P450 2C9 = Cytochrome P450 2C9 (Homo sapiens, UniProt P11712); assay: Inhibition of human liver microsome CYP2C9 using diclofenac as substrate incubated for 20 mins by LC-MS/MS analysis
Sequence of Cytochrome P450 2C9 (P11712 whole entry): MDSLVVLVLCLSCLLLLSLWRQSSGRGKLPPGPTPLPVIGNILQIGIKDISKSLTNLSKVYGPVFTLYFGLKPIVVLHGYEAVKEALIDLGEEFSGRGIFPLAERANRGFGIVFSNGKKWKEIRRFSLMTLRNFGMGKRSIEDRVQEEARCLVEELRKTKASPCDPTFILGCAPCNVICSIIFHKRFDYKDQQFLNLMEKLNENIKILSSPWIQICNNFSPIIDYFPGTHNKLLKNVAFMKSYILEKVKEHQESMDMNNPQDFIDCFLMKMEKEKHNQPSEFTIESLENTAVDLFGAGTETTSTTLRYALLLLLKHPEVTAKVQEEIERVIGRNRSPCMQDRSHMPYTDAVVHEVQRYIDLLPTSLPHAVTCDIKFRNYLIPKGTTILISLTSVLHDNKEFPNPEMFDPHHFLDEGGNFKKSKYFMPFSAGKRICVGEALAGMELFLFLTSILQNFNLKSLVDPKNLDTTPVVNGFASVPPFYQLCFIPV

[1] = biological target: Potassium voltage-gated channel subfamily H member 2 (Homo sapiens, UniProt Q12809); assay: Inhibition of human ERG transfected in HEK293 cells assessed as reduction in channel current at -80 mV holding potential by whole-cell patch clamp method
Sequence of Potassium voltage-gated channel subfamily H member 2 (Q12809 whole entry): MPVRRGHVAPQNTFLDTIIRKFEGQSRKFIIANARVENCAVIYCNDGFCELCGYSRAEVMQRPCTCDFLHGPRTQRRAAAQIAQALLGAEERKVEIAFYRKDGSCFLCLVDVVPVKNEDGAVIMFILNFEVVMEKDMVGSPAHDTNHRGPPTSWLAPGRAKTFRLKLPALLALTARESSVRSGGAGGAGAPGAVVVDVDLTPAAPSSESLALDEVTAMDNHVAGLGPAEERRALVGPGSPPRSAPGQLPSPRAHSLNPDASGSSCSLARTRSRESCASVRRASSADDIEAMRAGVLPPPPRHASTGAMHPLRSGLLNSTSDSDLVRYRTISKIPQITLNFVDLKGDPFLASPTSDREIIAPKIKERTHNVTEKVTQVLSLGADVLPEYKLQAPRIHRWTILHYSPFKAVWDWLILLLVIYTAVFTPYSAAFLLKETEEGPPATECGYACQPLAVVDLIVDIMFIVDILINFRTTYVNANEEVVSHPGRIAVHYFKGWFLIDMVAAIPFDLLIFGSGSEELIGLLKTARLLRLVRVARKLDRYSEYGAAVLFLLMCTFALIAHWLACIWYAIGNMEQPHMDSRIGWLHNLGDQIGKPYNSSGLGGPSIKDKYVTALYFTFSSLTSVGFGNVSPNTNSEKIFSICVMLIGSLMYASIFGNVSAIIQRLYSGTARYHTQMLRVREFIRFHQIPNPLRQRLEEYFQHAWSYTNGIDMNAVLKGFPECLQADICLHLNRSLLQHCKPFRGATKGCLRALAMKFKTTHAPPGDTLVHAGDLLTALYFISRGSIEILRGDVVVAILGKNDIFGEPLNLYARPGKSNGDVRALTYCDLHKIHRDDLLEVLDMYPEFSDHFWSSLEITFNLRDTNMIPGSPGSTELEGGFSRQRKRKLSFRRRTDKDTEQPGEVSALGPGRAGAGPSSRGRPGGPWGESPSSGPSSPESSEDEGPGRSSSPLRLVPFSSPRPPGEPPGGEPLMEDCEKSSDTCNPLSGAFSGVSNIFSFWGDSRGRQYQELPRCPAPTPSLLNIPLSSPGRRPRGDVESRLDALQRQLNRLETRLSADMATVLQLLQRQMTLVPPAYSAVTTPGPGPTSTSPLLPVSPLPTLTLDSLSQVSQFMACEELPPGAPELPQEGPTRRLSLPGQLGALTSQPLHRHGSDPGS

Cytochrome P450 2C8 = biological target: T2, Cytochrome P450 2C8 (Homo sapiens, UniProt P10632); assay: Inhibition of human liver microsome CYP2C8 using paclitaxel as substrate incubated for 20 mins by LC-MS/MS analysis
T2 sequence (P10632 whole entry): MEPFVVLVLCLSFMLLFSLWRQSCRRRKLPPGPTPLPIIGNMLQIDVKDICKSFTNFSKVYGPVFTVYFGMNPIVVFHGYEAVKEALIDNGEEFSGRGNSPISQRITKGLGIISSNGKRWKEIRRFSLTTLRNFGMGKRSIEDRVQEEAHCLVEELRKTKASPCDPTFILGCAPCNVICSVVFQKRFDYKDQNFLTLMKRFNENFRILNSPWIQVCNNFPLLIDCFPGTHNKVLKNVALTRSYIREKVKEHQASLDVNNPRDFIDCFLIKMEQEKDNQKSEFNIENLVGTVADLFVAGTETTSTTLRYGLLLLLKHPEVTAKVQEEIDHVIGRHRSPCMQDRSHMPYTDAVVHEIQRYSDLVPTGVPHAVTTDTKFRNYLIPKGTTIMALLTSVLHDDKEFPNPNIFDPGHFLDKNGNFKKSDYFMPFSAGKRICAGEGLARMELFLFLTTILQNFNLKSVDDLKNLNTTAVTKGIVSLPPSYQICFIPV

Sequence of Cytochrome P450 2D6 (P10635 whole entry): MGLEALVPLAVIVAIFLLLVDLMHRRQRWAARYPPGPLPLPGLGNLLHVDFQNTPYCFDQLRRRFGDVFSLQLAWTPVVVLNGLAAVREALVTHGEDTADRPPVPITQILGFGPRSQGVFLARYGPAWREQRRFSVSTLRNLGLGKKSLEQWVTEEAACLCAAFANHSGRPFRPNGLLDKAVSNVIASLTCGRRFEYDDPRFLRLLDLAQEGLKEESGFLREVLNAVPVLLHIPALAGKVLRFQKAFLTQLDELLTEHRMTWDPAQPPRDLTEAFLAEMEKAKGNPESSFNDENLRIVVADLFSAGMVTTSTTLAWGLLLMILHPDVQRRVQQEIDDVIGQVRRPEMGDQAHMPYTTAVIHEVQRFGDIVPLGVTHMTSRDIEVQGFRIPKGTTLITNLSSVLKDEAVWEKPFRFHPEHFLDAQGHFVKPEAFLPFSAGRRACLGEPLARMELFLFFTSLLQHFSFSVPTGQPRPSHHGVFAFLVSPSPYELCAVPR

IC50 (Cytochrome P450 2D6): > 25 µM
IC50 (Cytochrome P450 1A2): > 25 µM
IC50 (Cytochrome P450 2C9): > 25 µM
IC50 [1]: 3 µM
IC50 (Cytochrome P450 2C8): > 25 µM
SMILES: NC[C@H](NC(=O)c1ccc(-c2ccc(C(F)(F)F)c(F)c2)[nH]1)c1nc(CO)cs1
